Reference: publication PMC10937419, “Exploring pyrrolidinyl-spirooxindole natural products as promising platforms for the synthesis of novel spirooxindoles as EGFR/CDK2 inhibitors for halting breast cancer cells” (Frontiers in Chemistry, 2024)
Where two headings read alike, the source gives them in different places.

Experiments:
[1] = molecular target: T1, EGFR kinase (Homo sapiens, UniProt P00533); assay: EGFR kinase inhibition assay; format: biochemical; details: for % remaining EGFR kinase activity (relative to control): signal relative to control; for % remaining EGFR kinase activity (relative to control) / inhibition at 0.01 µM / inhibition at 0.1 µM / inhibition at 1 µM / inhibition at 2.5 µM / inhibition at 5 µM / inhibition at 10 µM: ΔT=30 min; for IC50: average of three independent replicates; for % Of EGFR inhibition: concentration not given in Table 2, matches 10 µM in the 4th table
T1 construct: purchased BPS Bioscience Corporation 40321
T1 sequence (P00533 25-1210): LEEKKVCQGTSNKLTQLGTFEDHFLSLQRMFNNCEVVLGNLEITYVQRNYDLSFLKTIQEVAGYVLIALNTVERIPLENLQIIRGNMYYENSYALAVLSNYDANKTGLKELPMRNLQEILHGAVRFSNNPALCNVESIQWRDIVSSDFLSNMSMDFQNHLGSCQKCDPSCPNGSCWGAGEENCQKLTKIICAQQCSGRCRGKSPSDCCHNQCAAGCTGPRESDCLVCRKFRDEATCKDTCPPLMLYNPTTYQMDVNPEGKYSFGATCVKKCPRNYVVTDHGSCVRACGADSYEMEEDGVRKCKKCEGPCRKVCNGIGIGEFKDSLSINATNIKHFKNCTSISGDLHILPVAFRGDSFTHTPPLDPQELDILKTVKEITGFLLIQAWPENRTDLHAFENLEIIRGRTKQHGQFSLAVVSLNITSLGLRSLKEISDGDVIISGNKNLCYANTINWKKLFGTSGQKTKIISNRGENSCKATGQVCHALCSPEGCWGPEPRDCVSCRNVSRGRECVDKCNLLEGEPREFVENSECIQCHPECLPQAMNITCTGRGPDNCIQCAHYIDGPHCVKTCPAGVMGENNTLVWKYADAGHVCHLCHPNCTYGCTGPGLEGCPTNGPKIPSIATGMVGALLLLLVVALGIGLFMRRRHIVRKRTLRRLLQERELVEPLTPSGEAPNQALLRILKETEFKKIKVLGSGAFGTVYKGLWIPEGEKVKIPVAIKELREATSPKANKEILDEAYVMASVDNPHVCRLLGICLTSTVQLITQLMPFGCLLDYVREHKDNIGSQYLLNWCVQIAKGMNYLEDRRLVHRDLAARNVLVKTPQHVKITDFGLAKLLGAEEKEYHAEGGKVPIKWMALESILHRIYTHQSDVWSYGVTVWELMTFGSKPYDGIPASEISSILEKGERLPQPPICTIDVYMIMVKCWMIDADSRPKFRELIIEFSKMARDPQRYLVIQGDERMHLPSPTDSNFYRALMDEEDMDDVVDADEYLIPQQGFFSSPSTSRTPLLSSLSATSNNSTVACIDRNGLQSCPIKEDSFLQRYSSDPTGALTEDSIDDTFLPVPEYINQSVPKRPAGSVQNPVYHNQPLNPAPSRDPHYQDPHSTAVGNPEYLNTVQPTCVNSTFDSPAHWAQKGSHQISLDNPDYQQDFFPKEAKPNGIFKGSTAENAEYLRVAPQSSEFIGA
Experimental: (§1) Inhibitory activities of 5g, 5l, and 5n were tested against EGFR and CDK-2.
(§2) Plus, Promega, USA) inhibition assay.

[2] = system: MDA-MB-231 cells; assay: MTT cytotoxicity assay, MDA-MB-231 breast cancer cells; format: cell-based; details: mean ± SD of three independent trials, read-out: IC50 ± SD, MDA-MB-231
Experimental: (§3) All cells were incubated at 37 °C in 5% carbon dioxide atmosphere (NuAire). Cells were plated at a density of 5x10^4 cells in triplicates in a plate of 96 wells. On the second day, cells were treated with the compounds with concentrations of (0.01, 0.1, 1, 10, and 100 µM). Cell viability was assessed using the MTT assay [6].

[3] = system: MCF-7 cells; assay: Cell cycle analysis by flow cytometry; format: cell-based; details: MCF-7, at the IC50 value, 48 h
[4] = system: MCF-7 cells; assay: MTT cytotoxicity assay, MCF-7 breast cancer cells; format: cell-based; details: Homo sapiens, MCF7; MTT assay; mean ± SD of three independent trials; read-out: IC50 ± SD, MCF-7
Experimental: as §3

[5] = system: WISH cells; assay: MTT cytotoxicity (safety) assay, normal WISH cells; format: cell-based; details: mean ± SD of three independent trials
Experimental: The cytotoxicity of the synthesized compounds was tested using the MTT assay on breast cancer cells (MCF-7 and MDA-MB-231).
The methods for the Cytotoxic activity ([Mosmann, 1983]; [Nafie et al., 2020a]); EGFR/CDK-2 enzyme inhibition ([Nafie et al., 2022a]); Flow cytometry using Annexin V/PI staining; Gene expression analysis using RT-PCR ([Nafie et al., 2022b]); are amended in the Supplementary Material S1.
as §3, with “Both breast cancer; MCF-7 and MDA-MB-231 and normal (WISH) cells were purchased from the National Research Institute, Egypt, and maintained in RPMI-1640 medium L-Glutamine (Lonza Verviers SPRL, Belgium, cat#12-604F). All” for “All”

[6] = molecular target: T2, CDK-2 kinase (Homo sapiens, UniProt P24941); assay: CDK-2 kinase inhibition assay (Kinase-Glo Plus); format: biochemical; details: for CDK-2 kinase activity remaining (% of control): signal relative to control; for CDK-2 kinase activity remaining (% of control) / inhibition at 0.01 µM / inhibition at 0.1 µM / inhibition at 1 µM / inhibition at 2.5 µM / inhibition at 5 µM / inhibition at 10 µM: ΔT=30 min; for inhibition at 0.01 µM / inhibition at 0.1 µM / inhibition at 1 µM / inhibition at 2.5 µM / inhibition at 5 µM / inhibition at 10 µM: read-out: % of inhibition, CDK2; for IC50: average of three independent replicates
T2 construct: purchased not clearly printed (Promega, USA is printed after 'Kinase-Glo Plus'; #79599 is a BPS Bioscience number to my knowledge) 79599
Experimental: as §1, §2

[7] = system: MCF-7 cells; assay: RT-PCR gene expression of apoptosis-related genes; format: cell-based; details: MCF-7, at the IC50 value, 48 h
From the text: Both the untreated and treated MCF-7 cells were subjected to RT-PCR to confirm apoptotic cell death (Figure 5). […] These findings are in line with the possibility of triggering cell death by blocking enzymes. Activation of the intrinsic apoptotic pathway leads to mitochondrial potential loss and cytochrome c release. When the ratio of proteins that promote cell death to those that prevent it rises, a cascade reaction involving caspases 3 and 9 is set in motion, leading to cell death by caspase-dependent apoptosis.
“Values are expressed as Mean ± SD of three independent replicates”. “Data were normalized using β-actin as house-keeping gene. The dashed line represents the gene expression level of untreated control. Fold change was calculated using 2^^- ΔΔCT”.
Gene expression of Bcl-2, the anti-apoptotic gene, and the pro-apoptotic genes P53, Bax, and Caspapses-3,8,9 were examined to delve deeper into the apoptotic pathway. […] After treatment, RT-PCR reaction was carried out following routine work. Then, the Ct values were collected to calculate the relative genes’ expression in all samples by normalization to the β-actin housekeeping gene.

[8] = system: MCF-7 cells; assay: Annexin V/PI staining flow cytometry (apoptosis/necrosis); format: cell-based; details: MCF-7, at the IC50 value, 48 h
Experimental: The apoptotic activity of compounds 5g was determined by flow cytometric analysis of Annexin V/PI staining of untreated and treated MCF-7 cells. […] Additionally, they induced necrotic cell death by 5.43% compared to 2.12% in the untreated control.
FIGURE 4 (A) Bar representation of the percentage of apoptosis (early and late apoptotic cell population) using Annexin V/Propidium Iodide staining.
MCF-7 cells were seeded into 6-well culture plates (3-5× 10^5 cells/well) and incubated overnight. […] Next, media supernatants and cells were collected and rinsed with ice-cold PBS. Then cells were suspended the cells in 100 µL of annexin binding buffer solution "25 mM CaCl2, 1.4 M NaCl, and 0.1 M Hepes/NaOH, pH 7.4” and incubation with “Annexin V-FITC solution (1:100) and propidium iodide (PI)” at a concentration equals 10 µg/mL in the dark for 30 min. Stained cells were then acquired by BD FACSCalibur™ Flow Cytometer.

[9] = Homo sapiens, MDA-MB-231, MTT assay

In the case of `O=C(O)CN1C(=O)S[C@@]2(C1=O)[C@@H](c1ccc(Cl)cc1)[C@H]1CSCN1[C@@]21C(=O)Nc2ccc(Br)cc21` [Compound 5g, 2-((3S,6′S,7′S,7a′S)-5-bromo-7'-(4-chlorophenyl)-2,2″,4″-trioxo-7′,7a′-dihydro-1′H,3′H-dispiro [indoline-3,5′-pyrrolo [1,2-c]thiazole-6′,5″-thiazolidin]-3″-yl)acetic acid], the “% remaining EGFR kinase activity (relative to control)” value ([1]; 0.01 µM) is reported as 90.58%, the inhibition at 0.01 µM ([1]; 0.01 µM) is reported as 9.42% and the “% remaining EGFR kinase activity (relative to control)” value ([1]; 0.1 µM) is reported as 69.72%. The inhibition at 0.1 µM ([1]; 0.1 µM) was 30.3%, the “% remaining EGFR kinase activity (relative to control)” value ([1]; 1 µM) was 40.27% and the inhibition at 1 µM ([1]; 1 µM) was 59.7%. The “% remaining EGFR kinase activity (relative to control)” value ([1]; 2.5 µM) was 33.39%, the inhibition at 2.5 µM ([1]; 2.5 µM) was 66.6% and the “% remaining EGFR kinase activity (relative to control)” value ([1]; 5 µM) was 31.63%. For the same compound, the inhibition at 5 µM ([1]; 5 µM) was 68.4%, the “% remaining EGFR kinase activity (relative to control)” value ([1]; 10 µM) was 7.867% and the inhibition at 10 µM ([1]; 10 µM) was 92.6%. The IC50 [1] was 0.026 ± 0.006 µM, the “% Of EGFR inhibition” value [1] was 92.6 ± 1.9% and the IC50 [2, 9] was 23.5 ± 0.9 µM. For the same compound, the “cell population in the G0-G1-phase” value ([3]; control 31%) was 39.8%, the “cell population in the S-phase” value ([3]; control 32.1%) was 45.2% and the “cells population at G2/M phase” value ([3]; versus untreated control) was “decreased”. The IC50 [4] was 2.8 ± 0.4 µM, the IC50 [5] was 39.3 ± 1.8 µM and the “CDK-2 kinase activity remaining (% of control)” value ([6]; 0.01 µM) was 90.11%. For the same compound, the inhibition at 0.01 µM ([6]; 0.01 µM) was 9.89%, the “CDK-2 kinase activity remaining (% of control)” value ([6]; 0.1 µM) was 78.5% and the inhibition at 0.1 µM ([6]; 0.1 µM) was 21.5%. The “CDK-2 kinase activity remaining (% of control)” value ([6]; 1 µM) was 64.55%, the inhibition at 1 µM ([6]; 1 µM) was 35.5% and the “CDK-2 kinase activity remaining (% of control)” value ([6]; 2.5 µM) was 60.7%. For the same compound, the inhibition at 2.5 µM ([6]; 2.5 µM) was 39.3%, the “CDK-2 kinase activity remaining (% of control)” value ([6]; 5 µM) was 33.99% and the inhibition at 5 µM ([6]; 5 µM) was 66%. The “CDK-2 kinase activity remaining (% of control)” value ([6]; 10 µM) was 27.2254%, the inhibition at 10 µM ([6]; 10 µM) was 91.9% and the IC50 [6] was 0.301 µM. For the same compound, the “Bcl-2 gene expression fold change” value ([7]; anti-apoptotic gene, downregulated) was 0.39 fold, the “Bax gene expression fold change” value ([7]; normalized to β-actin, 2^-ΔΔCT) was 6.26 fold and the “P53 gene expression fold change” value ([7]; normalized to β-actin, 2^-ΔΔCT) was 4.1 fold. For the same compound, the “caspase 3 gene expression fold change” value ([7]; normalized to β-actin, 2^-ΔΔCT) was 9.2 fold, the “caspase 8 gene expression fold change” value ([7]; normalized to β-actin, 2^-ΔΔCT) was 1.7 fold and the “caspase 9 gene expression fold change” value ([7]; normalized to β-actin, 2^-ΔΔCT) was 6.13 fold. It also gave an early apoptosis [8] of 21.87%, a late apoptosis [8] of 10.15% and a necrotic cell death ([8]; untreated control 2.12%) of 5.43%.
For `COC(=O)[C@@H](NC(=O)CN1C(=O)S[C@@]2(C1=O)[C@@H](c1ccc(Br)cc1)[C@H]1CSCN1[C@@]21C(=O)Nc2cc(Cl)ccc21)C(C)C` [Compound 5l, Methyl (2-((3S,6′S,7′S,7a′S)-7'-(4-bromophenyl)-6-chloro-2,2″,4″-trioxo-7′,7a′-dihydro-1′H,3′H-dispiro [indoline-3,5′-pyrrolo [1,2-c]thiazole-6′,5″-thiazolidin]-3″-yl)acetyl)valinate], the “% remaining EGFR kinase activity (relative to control)” value ([1]; 0.01 µM) was 69.72%, the inhibition at 0.01 µM ([1]; 0.01 µM) was 30.3% and the “% remaining EGFR kinase activity (relative to control)” value ([1]; 0.1 µM) was 60.14%. For the same compound, the inhibition at 0.1 µM ([1]; 0.1 µM) was 39.9%, the “% remaining EGFR kinase activity (relative to control)” value ([1]; 1 µM) was 48.86% and the inhibition at 1 µM ([1]; 1 µM) was 51.1%. The “% remaining EGFR kinase activity (relative to control)” value ([1]; 2.5 µM) was 41.25%, the inhibition at 2.5 µM ([1]; 2.5 µM) was 58.7% and the “% remaining EGFR kinase activity (relative to control)” value ([1]; 5 µM) was 19.88%. The inhibition at 5 µM ([1]; 5 µM) was 80.1%, the “% remaining EGFR kinase activity (relative to control)” value ([1]; 10 µM) was 11.75% and the inhibition at 10 µM ([1]; 10 µM) was 89.9%. For the same compound, the IC50 [1] was 0.067 ± 0.001 µM, the “% Of EGFR inhibition” value [1] was 89.8 ± 2.8% and the IC50 [2, 9] was 8.45 µM. The IC50 ([2]; MTT assay, listed as C00012) was 8.43 ± 0.6 µM, the IC50 [4] was 3.4 ± 0.5 µM and the IC50 [5] was 43.5 ± 2 µM. For the same compound, the “CDK-2 kinase activity remaining (% of control)” value ([6]; 0.01 µM) was 90.99%, the inhibition at 0.01 µM ([6]; 0.01 µM) was 9.01% and the “CDK-2 kinase activity remaining (% of control)” value ([6]; 0.1 µM) was 76%. The inhibition at 0.1 µM ([6]; 0.1 µM) was 24%, the “CDK-2 kinase activity remaining (% of control)” value ([6]; 1 µM) was 60.44% and the inhibition at 1 µM ([6]; 1 µM) was 39.6%. The “CDK-2 kinase activity remaining (% of control)” value ([6]; 2.5 µM) was 56.06%, the inhibition at 2.5 µM ([6]; 2.5 µM) was 43.9% and the “CDK-2 kinase activity remaining (% of control)” value ([6]; 5 µM) was 36.07%. For the same compound, the inhibition at 5 µM ([6]; 5 µM) was 63.9%, the “CDK-2 kinase activity remaining (% of control)” value ([6]; 10 µM) was 29.31% and the inhibition at 10 µM ([6]; 10 µM) was 89.4%. It also gave an IC50 [6] of 0.345 µM.
